Assay results from US20190142744A1, “NUCLEIC ACID NANOCAGES, COMPOSITIONS, AND USES THEREOF” (North Carolina State University, priority 2015, published 2019).
Numbering of substitutions follows the chain as printed.

Experiments:
MCF-7 cells = experiment: Determination of endocytosis pathways in MCF-7 cells; assay type: cell-based, human; conditions: CPZ 10 μM, AMI 1 mM, DOX 2 μM, 2 h
Experimental: MCF-7 cells were seeded in 6-well plates (1×10^4 cells per well) and culture for 48 h. […] Then the cells were incubated with DOX/FA-NCl/NCa at DOX concentration of 2 μM or FA-NCI/AF488-NCa of the same concentration in the presence of the inhibitors for another 2 h. After washing the cells by 4° C. PBS twice, the cells were lysed with Pierce IP lysis buffer (Thermo Scientific) and centrifuged. Fluorescence of DOX and AF488 and protein concentration in the supernatant were measured, respectively, by a microplate reader (Infinite […], Tecan).

U2OS.EGFP cells = experiment: Determination of endocytosis pathways in U2OS.EGFP cells; assay type: cell-based, human; conditions: MCD 3 mM, AMI 1 mM, flow cytometry
Experimental: U2OS.EGFP cells were seeded in 24-well plates (˜25000 cells/well) and cultured for 2 d. Then the cells were pre-incubated with several endocytosis inhibitors^[19b], such as chlorpromazine (CPZ, 10 μM) for clathrin-mediated endocytosis, nystatin (NYS, 25 μg/mL) for caveolin-mediated endocytosis, methyl-β-cyclodextrin (MCD, 3 mM) for lipid raft and amiloride (AMI, 1 mM) for macropinocytosis, for 1 h at 37° C., respectively. Afterwards, the cells were incubated with AF647-Cas9/sgRNA/NC/PEI for another 2 h in the presence of the inhibitors. Cells were then washed, trypsinized and resuspended in full serum medium, intracellular AF647 fluorescence intensities were analyzed by flow cytometry.

[1] = Stability of DNA NC incubated with Cas9/sgRNA (agarose gel); assay type: physicochemical; conditions: Cas9/sgRNA 24 h
Experimental: The DNA NCs were prepared by RCA using cyclized single stranded DNA (ssDNA) templates. 5′ phosphorylated linear ssDNA templates (FIG. 21) were cyclized by CircLigase II ssDNA ligase (Epicentre) following manufacture's instructions. Unligated ssDNA chains were removed with 1 U Exo I (NEB) at 37° C. for 45 min followed by heat inactivation at 80° C. for 15 min. The cyclized ssDNA template (10 pmol) was added into 1 mL 1× isothermal amplification buffer (NEB) together with 0.5 μM primer and 200 μM dNTP and heated to 95° C. for 5 min. After hybridizing the template and primer by cooling the mixture to room temperature, Bst 2.0 DNA polymerase (0.2 U/μL) was added to initiate the RCA. The RCA was performed at 65° C. overnight and the denatured polymerase after the reaction was removed by centrifugation at 14,000×g for 2 min. […] The synthesized DNA NCs were analyzed by 0.8% agarose gel electrophoresis and Nanodrop 2000C (Thermal Scientific) was applied to measure the concentration and purity of the DNA NC. […] Zeta potential and particle size of NC were measured with a Zetasizer (Malvern). To image the NC by atomic force microscopy (AFM), the NC was dropped and dried onto a silicon wafer (Ted Pella) and analyzed on a Nanoscope AFM instrument (Veeco, Santa Barbara, Calif.) using tapping mode in ambient air.

[2] = test system: EGFP gene in U2OS.EGFP cells; experiment: EGFP gene disruption assay in U2OS.EGFP cells (fluorescence microscopy, flow cytometry); assay type: cell-based, human; conditions: NC-23, NC-12, NC-0 coated with PEI; different Cas9/sgRNA molar ratios
Experimental: The reporter cell line U2OS.EGFP with a single copy of destabilized EGFP gene integrated into the genome was a generous gift from Dr. J Keith Joung at Massachusetts General Hospital.^[6b] The cells were cultured in a 37° C. incubator under 5% CO2 and 90% humidity with full serum medium: Dulbecco's Modified Eagle's Medium supplemented with 10% (v/v) FBS, 2 mM GlutaMAX (Life Technologies), penicillin (100 U/mL) and streptomycin (100 μg/mL). U2OS.EGFP cells were seeded into 24-well plates (˜25,000 cells per well) one day before the transfection. […] Two days after the delivery, the cells were analyzed using a fluorescent microscope (IX71, Olympus). For the flow cytometry analysis, the cells were washed with ice cold PBS twice and trypsinized with 0.05% trypsin (Mediatech) at 37° C. for 1-2 min. Afterwards, the cells were washed and resuspended in full serum medium and analyzed by a BD Accuri C6 flow cytometer (BD Biosciences).

N=C(N)NC(=O)c1nc(Cl)c(N)nc1N [amiloride]
effect of endocytosis inhibitor on internalization of DOX/FA-NCl/NCa (MCF-7 cells): pronounced effects in inhibiting the internalization | effect of endocytosis inhibitor on uptake of Cas9/sgRNA/NC-12/PEI (AF647-Cas9) (U2OS.EGFP cells): greatest reduction in Cas9 uptake

CN(C)CCCN1c2ccccc2Sc2ccc(Cl)cc21 [chlorpromazine]
effect of endocytosis inhibitor on internalization of DOX/FA-NCl/NCa (MCF-7 cells): pronounced effects in inhibiting the internalization

methyl-β-cyclodextrin
effect of endocytosis inhibitor on uptake of Cas9/sgRNA/NC-12/PEI (AF647-Cas9) (U2OS.EGFP cells): greatest reduction in Cas9 uptake

B1: NC-0: DNA NC variant with 0 nucleotides complementary to the sgRNA (nucleic acid)
DNA: GAGAAACGAGTGCGGTCACAGCTAAGCTAGATGCATCTAGCAAGCGCCGCCACTGATTTCACCGCTTCAAGCTAGATGCATCTAGCAAT
modifications: DNA nanoclew made by rolling circle amplification of circularized template, further chemistry not given here; the letters are possibly those of the target site
notes: DNA NC variant with 0 nucleotides complementary to the sgRNA
resistance of DNA NC to Cas9/sgRNA degradation [1]: resistant to Cas9/sgRNA degradation

B2: NC-23: DNA NC variant with 23 nucleotides complementary to the sgRNA (nucleic acid)
DNA: GGGCACGGGCAGCTTGCCGGTGGAAGCTAGATGCATCTAGCAAGCGCCGCCACTGATTTCACCGCTTCAAGCTAGATGCATCTAGCAAT
modifications: DNA nanoclew made by rolling circle amplification of circularized template, further chemistry not given here; the letters are possibly those of the target site
notes: DNA NC variant with 23 nucleotides complementary to the sgRNA
resistance of DNA NC to Cas9/sgRNA degradation [1]: resistant to Cas9/sgRNA degradation

B3: NC-12: DNA nanoclew encoding 12 nucleotides complementary to the 5′ end of the sgRNA (nucleic acid)
DNA: B2 DNA with G2C, G3T, C4A, A5C, C18A, G19T, G20C, T21A, G22A, G23T
modifications: Rolling circle amplification template for DNA nanoclew, further chemistry not given here; the letters are possibly those of the target site
notes: DNA nanoclew encoding 12 nucleotides complementary to the 5′ end of the sgRNA
fraction of EGFP negative cells among DNA NC variants [2]: highest fraction of EGFP negative cells
